Source: US20240415819A1, “MACROCYCLIC COMPOUNDS AS PROTEASOME SUBUNIT BETA TYPE-5 INHIBITORS” (Lead Discovery Center GmbH, priority 2021, published 2024)
Where two headings read alike, the source gives them in different places.

Columns and labels:
[1] = test system: A549 (human lung carcinoma cell line); assay: Glo assay of A549 cells (Table 3; ProteasomeGlo plating scheme); format: cell-based; details: Homo sapiens
Procedure, shortened: (§1)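 Luminescent read-out of cellular chymotrypsin-like proteasome activity: cells exposed to compound 105 min at 37° C., 5% CO2, then given Suc-LLVY-Glo reagent, shaken 2-5 min and kept dark 10-15 min before reading. Values are IC50 [nM].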

[2] = test system: B-cells isolated from PBMC's; assay: Chymotrypsin-like ProteasomeGlo assay in B-cells isolated from PBMCs; format: cell-based, human; details: Homo sapiens; B-cells isolated from PBMC's; read-out: Pglo B-Cell
Procedure, shortened: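 Human B-cells were negatively isolated from buffy-coat PBMCs by density gradient, RBC lysis and Miltenyi magnetic separation. Cells were plated and compounds added by acoustic transfer after 1:100 dilution, with DMSO controls and medium-only wells. Chymotrypsin-like proteasome activity was read by luminescent ProteasomeGlo to derive IC50.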

[3] = test system: Karpas cells; assay: Glo assay of Karpas cells (Table 3; ProteasomeGlo plating scheme); format: cell-based; details: read-out: Pglo Karpas
Procedure, shortened: as §1

[4] = A549 cells, read-out: PGLo A549

Structure (SMILES) | IC50 [1, 4] [nM] | IC50 [2] [nM] | IC50 [3] [nM] | IC50 ([1]; A549, read-out: PGLo A549 [nM]) [nM]
Cc1ccc2cc1CNC(=O)[C@H](CCc1ccccc1)NC(=O)[C@@H](NC(=O)OCc1ccccc1)CC(=O)N1CCC[C@H](CCO2)C1 [Compound 292, benzyl ((13R,9S,12S)-5^4-methyl-8,11,14-trioxo-9-phenethyl-4-oxa-7,10-diaza-1(3,1)-piperidina-5(1,3)-benzenacyclotetradecaphane-12-yl)carbamate] | < 100 |  |  | 
CCC(C(=O)N[C@H]1CC(=O)N2CCCC(CCOc3ccc(C)c(c3)CNC(=O)[C@H](CCc3ccccc3)NC1=O)C2)c1ccc(OC)c(OC)c1 (stereo partly drawn) [Compound 64, 2-(3,4-dimethoxyphenyl)-N-((9S,12S)-5^4-methyl-8,11,14-trioxo-9-phenethyl-4-oxa-7,10-diaza-1(3,1)-piperidina-5(1,3)-benzenacyclotetradecaphane-12-yl)butanamide] | < 100 | < 100 | < 100 | 
CC(=O)N[C@H]1CC(=O)N2CCCC(CCOc3ccc(C)c(c3)CNC(=O)C(c3cnn(Cc4ccccc4)c3)NC1=O)C2 (stereo partly drawn) [Compound 565, N-((12S)-9-(1-benzyl-1H-pyrazol-4-yl)-5^4-methyl-8,11,14-trioxo-4-oxa-7,10-diaza-1(3,1)-piperidina-5(1,3)-benzenacyclotetradecaphane-12-yl)acetamide] | < 100 |  |  | 
Cc1ccc2cc1CNC(=O)[C@H](CCc1ccccc1)NC(=O)[C@@H](NC(=O)OCC1(C)COC1)CC(=O)N1CCCC(CCO2)C1 (stereo partly drawn) [Compound 293, (3-methyloxetan-3-yl)methyl ((9S,12S)-5^4-methyl-8,11,14-trioxo-9-phenethyl-4-oxa-7,10-diaza-1(3,1)-piperidina-5(1,3)-benzenacyclotetradecaphane-12-yl)carbamate] |  |  |  | < 100
Cc1ccc2cc1CNC(=O)[C@H](CCc1ccccc1)NC(=O)[C@H](NC(=O)OCc1ccccc1)CC(=O)N1CCC[C@H](CCO2)C1 [Compound 291, benzyl ((13R,9S,12R)-5^4-methyl-8,11,14-trioxo-9-phenethyl-4-oxa-7,10-diaza-1(3,1)-piperidina-5(1,3)-benzenacyclotetradecaphane-12-yl)carbamate] | 1000 to 5000 |  |  | 
